Experimental data: patent US8293682B2, “Growth regulators for gramineous weeds” (Rikengreen Co., Ltd., priority 2008, dated 2012)

Tests used:
[1] = system: annual bluegrass (Poa annua L.); assay: Test Example 1: number of ear emergence, poly-cup, single or mixed application; format: in vivo
Procedure: At the initial stage of the ear emergence of annual bluegrass (Poa annua L.) grown in a poly-cup of 11 cm×11 cm, benzyladenine (Beanine for painting; made by Rikengreen; containing 1% benzyladenine) and ethephon (Ethrel 10 soluble concentrate; Nissan Chemical Industries; containing 10% ethephon) respectively as a single active ingredient or a mixture of them were diluted in a predetermined amount of water and applied by atomization so as to be a dose as indicated in Table. The application was carried out using 100 mL/m^2 of the solution to which a spreader (Riken Sprayzer (registered trade mark); made by Rikengreen) was added so as to be 1/1,000 fold. Inspection was made on Days 21, 32 and 45 after treatment with the agents to count the number of ear emergence in the cup. After completion of each inspection, clipping was performed.

[2] = system: annual bluegrass (Poa annua L.); conditions: cited from earlier work

SMILES: O=P(O)(O)CCCl [Ethephon, 2-chloroethylphosphonic acid]
- number of ear emergence in the cup ([1]; 21 Days after Application, Benzyladenine 0, Ethephon 40 mg a.i./m^2): 43
- number of ear emergence in the cup ([1]; 21 Days after Application, Benzyladenine 0, Ethephon 80 mg a.i./m^2): 47
- number of ear emergence in the cup ([1]; 21 Days after Application, Benzyladenine 0, Ethephon 160 mg a.i./m^2): 28
- number of ear emergence in the cup ([1]; 21 Days after Application, Benzyladenine 0, Ethephon 240 mg a.i./m^2): 29
- number of ear emergence in the cup ([1]; 21 Days after Application, Benzyladenine 0, Ethephon 320 mg a.i./m^2): 19
- number of ear emergence in the cup ([1]; 32 Days after Application, Benzyladenine 0, Ethephon 40 mg a.i./m^2): 38
- number of ear emergence in the cup ([1]; 32 Days after Application, Benzyladenine 0, Ethephon 80 mg a.i./m^2): 41
- number of ear emergence in the cup ([1]; 32 Days after Application, Benzyladenine 0, Ethephon 160 mg a.i./m^2): 32
- number of ear emergence in the cup ([1]; 32 Days after Application, Benzyladenine 0, Ethephon 240 mg a.i./m^2): 19
- number of ear emergence in the cup ([1]; 32 Days after Application, Benzyladenine 0, Ethephon 320 mg a.i./m^2): 15
- number of ear emergence in the cup ([1]; 45 Days after Application, Benzyladenine 0, Ethephon 40 mg a.i./m^2): 54
- number of ear emergence in the cup ([1]; 45 Days after Application, Benzyladenine 0, Ethephon 80 mg a.i./m^2): 51
- number of ear emergence in the cup ([1]; 45 Days after Application, Benzyladenine 0, Ethephon 160 mg a.i./m^2): 38
- number of ear emergence in the cup ([1]; 45 Days after Application, Benzyladenine 0, Ethephon 240 mg a.i./m^2): 39
- number of ear emergence in the cup ([1]; 45 Days after Application, Benzyladenine 0, Ethephon 320 mg a.i./m^2): 36
- growth of annual bluegrass growing among Kentucky bluegrass ([2]; Non-patent document 3, dose of 3.2 kg/hectare): slowed growth
- ear emergence of annual bluegrass growing among bent grass ([2]; Non-patent document 4, 3.8-7.6 kg/hectare): inhibits the ear emergence

SMILES: c1ccc(CNc2ncnc3nc[nH]c23)cc1 [Benzyladenine, 6-benzylaminopurine]
- number of ear emergence in the cup ([1]; 21 Days after Application, Benzyladenine 2, Ethephon 0 mg a.i./m^2): 39
- number of ear emergence in the cup ([1]; 21 Days after Application, Benzyladenine 4, Ethephon 0 mg a.i./m^2): 26
- number of ear emergence in the cup ([1]; 21 Days after Application, Benzyladenine 8, Ethephon 0 mg a.i./m^2): 36
- number of ear emergence in the cup ([1]; 21 Days after Application, Benzyladenine 12, Ethephon 0 mg a.i./m^2): 16
- number of ear emergence in the cup ([1]; 21 Days after Application, Benzyladenine 16, Ethephon 0 mg a.i./m^2): 11
- number of ear emergence in the cup ([1]; 32 Days after Application, Benzyladenine 2, Ethephon 0 mg a.i./m^2): 50
- number of ear emergence in the cup ([1]; 32 Days after Application, Benzyladenine 4, Ethephon 0 mg a.i./m^2): 34
- number of ear emergence in the cup ([1]; 32 Days after Application, Benzyladenine 8, Ethephon 0 mg a.i./m^2): 10
- number of ear emergence in the cup ([1]; 32 Days after Application, Benzyladenine 12, Ethephon 0 mg a.i./m^2): 9
- number of ear emergence in the cup ([1]; 32 Days after Application, Benzyladenine 16, Ethephon 0 mg a.i./m^2): 6
- number of ear emergence in the cup ([1]; 45 Days after Application, Benzyladenine 2, Ethephon 0 mg a.i./m^2): 71
- number of ear emergence in the cup ([1]; 45 Days after Application, Benzyladenine 4, Ethephon 0 mg a.i./m^2): 71
- number of ear emergence in the cup ([1]; 45 Days after Application, Benzyladenine 8, Ethephon 0 mg a.i./m^2): 67
- number of ear emergence in the cup ([1]; 45 Days after Application, Benzyladenine 12, Ethephon 0 mg a.i./m^2): 55
- number of ear emergence in the cup ([1]; 45 Days after Application, Benzyladenine 16, Ethephon 0 mg a.i./m^2): 45
- inhibition of ear emergence (summary in words) ([1]; Test Example 1, Tables 1-3): effective in inhibiting the ear emergence
